This is an account of results in patent US8569267B2, “Tetracyclic tetrahydrofuran derivatives containing cyclic amine side chain” (Janssen Pharmaceutica, NV, priority 2005, dated 2013).

Read-outs that look alike come from different tables or passages of the source. Where only a bound is given, the exact number is not on record here.

Assay [1] addresses T1, human cloned 5-HT2C receptor, expressed in CHO cells (Homo sapiens, UniProt P28335).
T1 construct: expressed in transfected cells; host or cells: CHO cells
T1 sequence (P28335 33-458): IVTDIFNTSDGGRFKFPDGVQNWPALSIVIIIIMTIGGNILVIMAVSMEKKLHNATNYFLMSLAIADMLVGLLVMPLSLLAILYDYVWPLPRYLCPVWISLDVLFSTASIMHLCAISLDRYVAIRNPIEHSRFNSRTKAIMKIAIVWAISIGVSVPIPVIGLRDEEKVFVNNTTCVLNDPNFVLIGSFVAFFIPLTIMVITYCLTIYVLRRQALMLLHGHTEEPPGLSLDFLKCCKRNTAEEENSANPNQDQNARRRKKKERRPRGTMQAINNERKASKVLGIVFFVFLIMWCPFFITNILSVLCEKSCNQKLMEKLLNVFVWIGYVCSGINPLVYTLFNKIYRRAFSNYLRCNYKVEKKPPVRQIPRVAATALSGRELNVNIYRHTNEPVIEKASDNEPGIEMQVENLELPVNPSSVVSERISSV
The assay is described as follows: In vitro binding affinity for 5-HT2C receptor ([3H]mesulergine radioligand binding). On the procedure:
In Vitro Binding Affinity for 5-HT2A and 5-HT2C Receptors
The interaction of the compounds of Formula (I) with 5-HT2A and 5-HT2C receptors was assessed in in vitro radioligand binding experiments. […] During the incubation, the radioligands bind to the receptor. When equilibrium of binding is reached, the receptor bound radioactivity is separated from the non-bound radioactivity, and the receptor bound activity is counted. The interaction of the test compounds with the receptors is assessed in competition binding experiments. Various concentrations of the test compound are added to the incubation mixture containing the tissue preparation and the radioligand. Binding of the radioligand will be inhibited by the test compound in proportion to its binding affinity and its concentration.

Assay [2] concerns the target T2, human Dopamine D2L receptor (Homo sapiens, UniProt P14416).
T2 construct: expressed in transfected cells; host or cells: CHO cells
The assay is described as follows: In vitro binding affinity for human D2L receptor ([3H]Spiperone binding). Here is the method:
In Vitro Binding Affinity for Human D2L Receptor
Frozen membranes of human Dopamine D2L receptor-transfected CHO cells were thawed, briefly homogenised using an Ultra-Turrax T25 homogeniser and diluted in Tris-HCl assay buffer containing NaCl, CaCl2, MgCl2, KCl (50, 120, 2, 1, and 5 mM respectively, adjusted to pH 7.7 with HCl) to an appropriate protein concentration optimised for specific and non-specific binding. Radioligand [^3H]Spiperone (NEN, specific activity ˜70 Ci/mmol) was diluted in assay buffer at a concentration of 2 nmol/L. Prepared radioligand (50 μl), along with 50 μl of either the 10% DMSO control, Butaclamol (10^−6 mol/l final concentration), or compound of interest, was then incubated (30 min, 37° C.) with 400 μl of the prepared membrane solution. Membrane-bound activity was filtered through a Packard Filtermate harvester onto GF/B Unifilterplates and washed with ice-cold Tris-HCl buffer (50 mM; pH 7.7; 6×0.5 ml). Filters were allowed to dry before adding scintillation fluid and counting in a Topcount scintillation counter. Percentage specific bound and competition binding curves were calculated using S-Plus software (Insightful).

Assay [3] deals with T3, NET (norepinephrine transporter) (Rattus norvegicus, UniProt Q63380).
T3 construct: Cortex from rat brain was collected and homogenised; from tissue; host or cells: rat brain cortex
T3 sequence (Q63380 1-617): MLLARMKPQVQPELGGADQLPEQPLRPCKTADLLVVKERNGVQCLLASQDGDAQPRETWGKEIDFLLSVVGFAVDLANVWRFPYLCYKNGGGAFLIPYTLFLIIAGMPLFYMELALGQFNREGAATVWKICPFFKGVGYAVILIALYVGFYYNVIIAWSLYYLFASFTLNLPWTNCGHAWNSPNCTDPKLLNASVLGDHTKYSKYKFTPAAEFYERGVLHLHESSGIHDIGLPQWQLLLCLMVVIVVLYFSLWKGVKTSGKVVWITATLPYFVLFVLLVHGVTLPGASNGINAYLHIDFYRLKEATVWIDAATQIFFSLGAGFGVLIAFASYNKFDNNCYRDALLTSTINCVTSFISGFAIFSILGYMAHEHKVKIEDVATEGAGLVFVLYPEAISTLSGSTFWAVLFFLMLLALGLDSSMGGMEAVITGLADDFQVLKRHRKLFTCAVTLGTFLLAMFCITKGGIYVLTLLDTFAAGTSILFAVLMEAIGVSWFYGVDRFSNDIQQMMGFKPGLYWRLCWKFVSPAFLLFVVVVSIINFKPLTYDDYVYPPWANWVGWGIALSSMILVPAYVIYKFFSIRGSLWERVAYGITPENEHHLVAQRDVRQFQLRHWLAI
The assay is described as follows: In vitro determination of NET reuptake inhibition ([3H]Nixosetine binding, rat brain cortex). On the procedure: In Vitro Determination of NET Reuptake Inhibition
Cortex from rat brain was collected and homogenised using an Ultra-Turrax T25 and a Dual homogeniser in ice-cold homogenising buffer containing Tris, NaCl and KCl (50 mM, 120 mM and 5 mM, respectively, pH 7.4) prior to dilution to an appropriate protein concentration optimised for specific and non-specific binding. […] Membrane-bound activity was detected by filtration through a Packard Filtermate harvester onto GF/B Unifilterplates, washed with ice-cold Tris-HCl buffer, containing NaCl and KCl (50 mM, 120 mM and 4 mM; pH 7.4; 6×0.5 ml). Filters were allowed to dry for 24 h before adding scintillation fluid. Scintillation fluid was allowed to saturate filters for 24 h before counting in a Topcount scintillation counter. Percentage specific bound and competition binding curves were calculated using S-Plus software (Insightful).

Where [4] appears, read: human cloned 5-HT2C receptor, read-out: 5-HT2C pIC50 (converted).
Setting [5] is: human D2L receptor-transfected CHO cell membranes, read-out: D2L pIC50 (converted).
Setting [6] is: rat brain cortex, read-out: NET pIC50 (converted).

T2 sequence (P14416 whole entry): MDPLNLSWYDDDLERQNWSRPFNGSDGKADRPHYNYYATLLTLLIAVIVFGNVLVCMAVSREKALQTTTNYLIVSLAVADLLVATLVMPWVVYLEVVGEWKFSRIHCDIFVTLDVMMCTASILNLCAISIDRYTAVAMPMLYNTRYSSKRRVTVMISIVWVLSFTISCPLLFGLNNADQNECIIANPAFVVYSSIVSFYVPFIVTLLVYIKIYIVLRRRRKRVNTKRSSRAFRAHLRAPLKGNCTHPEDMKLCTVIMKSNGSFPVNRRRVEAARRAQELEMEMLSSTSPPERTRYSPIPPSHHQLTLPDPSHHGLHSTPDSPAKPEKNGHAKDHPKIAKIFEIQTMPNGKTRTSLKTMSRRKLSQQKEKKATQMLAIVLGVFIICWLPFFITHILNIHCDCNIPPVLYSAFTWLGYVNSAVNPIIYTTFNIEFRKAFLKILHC

Turning to `O=C(NC1CCN(CC2CC3c4ccccc4Cc4ccc(F)cc4C3O2)CC1)C1CC1` (stereo not drawn) [Compound 220], the figures for the IC50 in assay [1] (setting [4]), in assay [2] (setting [5]) and in assay [3] (setting [6]) were 2.14 nM, 4.27 nM and 5370 nM, respectively.
Turning to `OCC1CC2CN(C[C@H]3C[C@@H]4c5ccccc5Cc5ccc(F)cc5[C@@H]4O3)CCC2O1` (stereo partly drawn) [Compound 274, [2R-(2α, 3aα, 12bβ)]-(2′RS,3a′RS, 7a′RS)[5-(11-fluoro-3,3a,8,12b-tetrahydro-2H-1-oxa-dibenzo[e,h]azulen-2-ylmethyl)-octahydro-furo[3,2-c]pyridin-2-yl]-methanol.oxalate (1:1)], the IC50 in assay [1] (setting [4]) is 0.912 nM; in assay [2] (setting [5]), 16.2 nM; in assay [3] (setting [6]) it was above 10000 nM.
For `O=C(Cc1ccc(Cl)cc1)NC1CCN(CC2CC3c4ccccc4Cc4ccc(F)cc4C3O2)CC1` (stereo not drawn) [Compound 239], the IC50 was 22.9 nM in assay [1] (setting [4]), 49 nM in assay [2] (setting [5]) and above 10000 nM in assay [3] (setting [6]).
The like results for `NCCNC(=S)NC1CCN(CC2CC3c4ccccc4Cc4ccc(F)cc4C3O2)CC1` (stereo not drawn) [Compound 256] were, in that order, 44.7 nM, 44.7 nM and 6460 nM.
For the molecule `O=C(NC1CCN(C[C@H]2C[C@@H]3c4ccccc4Cc4ccc(F)cc4[C@@H]3O2)CC1)OCc1ccccc1Cl` [Compound 218], the IC50 is 5.75 nM in assay [1] (setting [4]), 10.2 nM in assay [2] (setting [5]) and 5620 nM in assay [3] (setting [6]).
In the same order, the values of `C#CCOC(=O)NC1CCN(CC2CC3c4ccccc4Cc4ccc(F)cc4C3O2)CC1` (stereo not drawn) [Compound 217] are 4.07 nM, 4.9 nM and 8910 nM.
Turning to `O=C(CSc1ccccc1)NC1CCN(CC2CC3c4ccccc4Cc4ccc(F)cc4C3O2)CC1` (stereo not drawn) [Compound 241], the IC50 in assay [1] (setting [4]) was 6.46 nM; in assay [2] (setting [5]), 5.5 nM; in assay [3] (setting [6]), 7760 nM.
On to `COCCNC(=S)NC1CCN(CC2CC3c4ccccc4Cc4ccc(F)cc4C3O2)CC1` (stereo not drawn) [Compound 252], for which the IC50 in assay [1] (setting [4]) is 6.61 nM; in assay [2] (setting [5]) it was 11.5 nM; in assay [3] (setting [6]), 3240 nM.
As for `COc1ccc(OC(=O)NC2CCN(CC3CC4c5ccccc5Cc5ccc(F)cc5C4O3)CC2)cc1` (stereo not drawn) [Compound 219], the IC50 was 3.98 nM in assay [1] (5-HT2C pIC50, human cloned 5-HT2C receptor); 3.39 nM in assay [2] (D2L pIC50, human D2L receptor-transfected CHO cell membranes); above 10000 nM in assay [3] (NET pIC50, rat brain cortex).
As to `O=C(NCc1cccs1)C1CCN(CC2CC3c4ccccc4Cc4ccc(F)cc4C3O2)CC1` (stereo not drawn) [Compound 195], the IC50 in assay [1] (setting [4]) was 1.62 nM; in assay [2] (setting [5]), 5.5 nM; in assay [3] (setting [6]), 7760 nM.
In the same order, the values of `OC1CCN(C[C@H]2C[C@@H]3c4ccccc4Cc4ccc(F)cc4[C@@H]3O2)CC1` [Compound 144, [2R-(2α, 3aα, 12bβ)]1-(11-fluoro-3,3a,8,12b-tetrahydro-2H-1-oxa-dibenzo[e,h]azulen-2-ylmethyl)-piperidin-4-ol.oxalate (1:1)] are 0.692 nM, 4.79 nM and above 10000 nM.
In the case of `O=C(NC1CCN(CC2CC3c4ccccc4Cc4ccc(F)cc4C3O2)CC1)c1c(F)c(F)c(F)c(F)c1F` (stereo not drawn) [Compound 234], the IC50 was 21.9 nM in assay [1] (setting [4]), 8.71 nM in assay [2] (setting [5]) and 7240 nM in assay [3] (setting [6]).
On to `CCCCOC(=O)NC1CCN(CC2CC3c4ccccc4Cc4ccc(F)cc4C3O2)CC1` (stereo not drawn) [Compound 213], for which the values for the IC50 in assay [1] (setting [4]), in assay [2] (setting [5]) and in assay [3] (setting [6]) were 15.5 nM, 8.71 nM and 4370 nM, respectively.
With `Fc1ccc2c(c1)C1OC(CN3CCC(NC(=S)Nc4cccnc4)CC3)CC1c1ccccc1C2` (stereo not drawn) [Compound 254], the IC50 is 20 nM in assay [1] (setting [4]), 12.3 nM in assay [2] (setting [5]) and 3470 nM in assay [3] (setting [6]).
For the molecule `O=C(O)C(=O)O.OC1CCN(CC2CC3c4ccccc4Oc4ccc(F)cc4C3O2)CC1` (stereo not drawn) [Compound 283], in assay [2] (human D2L receptor-transfected CHO cell membranes), the “D2L pIC50” value came out at 6.70.
With `O=C(NC1CCN(CC2CC3c4ccccc4Cc4ccc(F)cc4C3O2)CC1)c1ccccc1Cl` (stereo not drawn) [Compound 227], the results for the IC50 in assay [1] (setting [4]), in assay [2] (setting [5]) and in assay [3] (setting [6]) were 11.2 nM, 5.25 nM and 9120 nM, respectively.
The like results for `COc1cc(C(=O)NC2CCN(CC3CC4c5ccccc5Cc5ccc(F)cc5C4O3)CC2)cc(OC)c1OC` (stereo not drawn) [Compound 235] were, in that order, 13.5 nM, 18.6 nM and 9120 nM.
`CCOC(=O)C1CCCN(C[C@H]2C[C@@H]3c4ccccc4Cc4ccc(F)cc4[C@@H]3O2)C1` (stereo partly drawn) [Compound 160]: the IC50 in assay [1] (setting [4]) was 2.88 nM; in assay [2] (setting [5]) it was 14.5 nM; in assay [3] (setting [6]), above 10000 nM.
In the same order, the values of `CCOC(=O)NC1CCN(CC2CC3c4ccccc4Cc4ccc(F)cc4C3O2)CC1` (stereo not drawn) [Compound 211] are 5.75 nM, 5.89 nM and above 10000 nM.
The like results for `O=C(NC1CCN(CC2CC3c4ccccc4Cc4ccc(F)cc4C3O2)CC1)c1cc2ccccc2s1` (stereo not drawn) [Compound 223] were, in that order, 23.4 nM, 17.8 nM and 8510 nM.
The like results for `O=C(Nc1ccccc1Oc1ccccc1)NC1CCN(CC2CC3c4ccccc4Cc4ccc(F)cc4C3O2)CC1` (stereo not drawn) [Compound 250] were, in that order, 20.4 nM, 37.2 nM and 3890 nM.
Take `COC(=O)NC1CCN(CC2CC3c4ccccc4Cc4ccc(F)cc4C3O2)CC1` (stereo not drawn) [Compound 210]: the IC50 in assay [1] (setting [4]) is 4.17 nM; in assay [2] (setting [5]), 7.94 nM; in assay [3] (setting [6]) it was 7410 nM.
As to `N#Cc1ccc(NC(=O)NC2CCN(CC3CC4c5ccccc5Cc5ccc(F)cc5C4O3)CC2)cc1` (stereo not drawn) [Compound 248], the IC50 in assay [1] (setting [4]) is 6.17 nM; in assay [2] (setting [5]), 2.09 nM; in assay [3] (setting [6]), 3800 nM.
In the same order, the values of `CCCNC(=O)NC1CCN(C[C@H]2C[C@@H]3c4ccccc4Cc4ccc(F)cc4[C@@H]3O2)CC1` [Compound 244] are 4.27 nM, 4.57 nM and 8910 nM.
Turning to `COc1ccc(NC(=O)CC2CN(C[C@H]3C[C@@H]4c5ccccc5Cc5ccc(F)cc5[C@@H]4O3)CCO2)cc1` (stereo partly drawn) [Compound 139], the IC50 is 24.5 nM in assay [1] (setting [4]), 56.2 nM in assay [2] (setting [5]) and above 10000 nM in assay [3] (setting [6]).
`O=C(Nc1ccccc1F)C1CCN(CC2CC3c4ccccc4Cc4ccc(F)cc4C3O2)CC1` (stereo not drawn) [Compound 189]: the IC50 in assay [1] (setting [4]) was 1.17 nM; in assay [2] (setting [5]), 7.76 nM; in assay [3] (setting [6]) it was above 10000 nM.
Consider `O=C(Nc1ccccc1)NC1CCN(CC2CC3c4ccccc4Cc4ccc(F)cc4C3O2)CC1` (stereo not drawn) [Compound 247], for which the results for the IC50 in assay [1] (setting [4]), in assay [2] (setting [5]) and in assay [3] (setting [6]) were 2.69 nM, 3.31 nM and 3550 nM, respectively.
For the molecule `Cc1cccc(C(=O)NC2CCN(CC3CC4c5ccccc5Cc5ccc(F)cc5C4O3)CC2)c1` (stereo not drawn) [Compound 225], the IC50 in assay [1] (setting [4]) is 11.2 nM; in assay [2] (setting [5]), 6.03 nM; in assay [3] (setting [6]), 5250 nM.
Consider `O=C(O)C1CCN(C[C@H]2C[C@@H]3c4ccccc4Cc4ccc(F)cc4[C@@H]3O2)CC1` [Compound 157], for which the IC50 in assay [1] (setting [4]) is 7.24 nM; in assay [2] (setting [5]), 132 nM; in assay [3] (setting [6]), above 10000 nM.
Take `O=C(NCc1cccc(C(F)(F)F)c1)C1CCN(CC2CC3c4ccccc4Cc4ccc(F)cc4C3O2)CC1` (stereo not drawn) [Compound 182]: the IC50 in assay [1] (setting [4]) is 8.32 nM; in assay [2] (setting [5]), 31.6 nM; in assay [3] (setting [6]) it was 6920 nM.
Turning to `CC(C)(C)COC(=O)NC1CCN(CC2CC3c4ccccc4Cc4ccc(F)cc4C3O2)CC1` (stereo not drawn) [Compound 215], the IC50 in assay [2] (setting [5]) is 15.8 nM; in assay [3] (setting [6]), 7410 nM.
